The melting point is the temperature of the solid-liquid transition.

Consider `COc1cccc(CCc2c(CCNC(=O)CCCCC(=O)NCCc3ccc(NS(C)(=O)=O)cc3)ccc(OC)c2OC)c1`, for which the melting point fell in the range of 157 to 159 °C.

`O=C(c1ccccc1)c1cc([N+](=O)[O-])ccc1OCCO`: the melting point lay within 124 to 126 °C. As for `O=c1nc2n(cc1-c1ccccc1)CCC2`, the melting point fell in the range of 200 to 202 °C.

`COc1ccc(-c2cc3ncnc(Nc4ccc5[nH]ccc5c4)c3s2)cc1` gave a melting point of 150 to 180 °C. For `COc1cc(N2CCCN(C3CCN(CCO)CC3)CC2)ccc1Nc1ncc2ccc(-c3ccccc3OC)n2n1` the value was 77 to 94 °C; for `CCN(CC)c1ccc2cc(N)c(=O)oc2c1`, 85 to 87 °C.

On to `CC(/C=C/c1c(C)sc(C)c1C)=C(F)\C=C\C(C)=C\C=O`, for which the melting point lay within 129 to 131 °C. For `CCn1c(=O)sc2cc(N)ccc21` the value was 132 to 133 °C; for `COc1cccc(OC)c1-c1cc(C(=O)NC2(C(=O)O)C3CC4CC(C3)CC2C4)nn1-c1ccc(NC=O)c2ccccc12` (stereo not given), 270 °C; for `CC(C)C(C)C=CC(C)C1CCC2C3CC(=O)C4CC=CCC4(C)C3CCC12C` (stereo not given), 118 to 120 °C. As to `CC(CCN1C(=O)c2ccccc2C1=O)Cc1ccc(C(=O)CCC(=O)O)cc1` (stereo not given), the melting point lay in the range of 142 to 143 °C.

For `c1cnc2cc3c(cc2n1)CCNCC3`, the melting point is 114 to 116 °C. Consider `CCCOC(=O)CS(=O)(=O)C=C1SC=CS1`, for which the melting point was in the range of 141 to 142 °C. Under `CC(C)(C)c1cc(N)cc(C(C)(C)C)c1O` stands 105 to 108 °C; under `Cc1ccc(C(=O)C2=C(O)C(=O)N(c3ccc(C)nn3)C2c2ccc(C(C)C)cc2)cc1` (stereo not given), 279 °C; under `NC(=O)C1CCC(=O)N1CC#CCN1CCCC1` (stereo not given), 146 to 148 °C. For `CNC(=O)N1C(=O)CC(c2ccc(OC)c(OC3CCCC3)c2)N1C` (stereo not given) the value was 65 to 68 °C; for `N#Cc1ccc2c(c1)C(=O)OC2`, 195 to 196 °C.

As to `CC(C)(C)OC(=O)NN(Cc1ccc(Cl)cc1)C(=O)OCC1c2ccccc2-c2ccccc21`, the melting point lay in the range of 53 to 55 °C. Compound `CCCOc1nc2sc(Cl)cc2c(=NC(=O)OC)n1CCC` gave a melting point of 65 to 67 °C. Take `N#Cc1c(Cl)csc1N`: the melting point came out at 230 °C. Under `COC(=O)[C@H]1Cc2c([nH]c3ccccc23)[C@@H](c2ccc3c(c2)OCO3)N1C(=O)C(C)Cl` (stereo not given in full) stands 125 to 127 °C. For `CCCCCS(=O)(=O)NC(=O)/C=C/c1ccc(OCCCOCCOC)cc1Oc1ncc(C(F)(F)F)cc1Cl` the value was 103 to 105 °C; for `CN(C)Cc1ccc(CSCCNC2=NS(=O)(=O)C(C(=O)N(C)C)=C2N)o1`, 101 to 104 °C. On to `CCOC(=O)c1cc(S)n2c(C)nnc2n1`, for which the melting point lay within 206 to 208 °C. For `Nc1ccc(C(=O)c2cccc(F)c2)cc1` the value was 98 to 100 °C. Compound `COc1cc(-c2cc(=O)c3c(OC)c(OC)c(OC)c(OC)c3o2)ccc1OCc1ccccc1` came in with a melting point of 109 to 111 °C.

As to `O=C(OC1CCN(Cc2ccccc2)CC1)c1ccc(Br)cc1`, the melting point was 71 to 72 °C. Under `CN1C(=O)c2c(c3c4ccccc4[nH]c3c3[nH]c4ccccc4c23)C1=O` stands over 350 °C; under `COC(=O)c1cn2c(C)c(C)sc2n1`, 180 to 181 °C. For `CC(=O)N1CCCc2cc(CO)ccc21` the value was 95 to 106 °C; for `O=C(CCl)Nc1ccccc1O`, 133 to 134 °C. With `CCCCCCCCOc1ccc(-c2ccc(C3CCC(CCC)C3)cc2)cc1` (stereo not given), the melting point amounted to 84 °C. On to `COc1ccc(-c2cc(=Nc3c(C)cc(C)cc3C)n(C)c(SC)n2)cc1OC`, for which the melting point was 172 to 173 °C. Under `CC(=O)NNC(=O)c1ccc2occc2c1` stands 145 to 146 °C; under `C=C(C)OC1CCC(=O)N1S(=O)(=O)c1ccccc1` (stereo not given), 54 to 56 °C.

In turn, `N#Cc1c(N2CCN(C(=O)c3ccco3)CC2)c2cc(F)cnc2n(Cc2cccc(F)c2)c1=O` registered a melting point of 211 °C. As for `C#CCn1cccc1-c1nc(-c2ccc(OC)cc2)c(-c2ccc(OC)cc2)s1`, the melting point is 102 to 104 °C. For `COC(C)(OC)C(=O)CCCCCCOc1ccc(-c2ccccc2)cc1` the value was 48 °C; for `C[C@@H](NC(=O)C1CCC1)c1cccc(C(=O)c2ccccc2)c1`, 90 to 93 °C. `CC(=O)N1CCC(Oc2ccc(N(C)C)cc2)CC1` came in with a melting point of 78 to 80 °C. For `CS(=O)(=O)c1cccnc1Oc1ccc(Cl)c(Cl)c1` the value was 95 to 96 °C; for `CN(C)c1ccc(C=C2SC(N3CCCC3)=NC2=O)cc1-c1cc(F)c(O)c(C23CC4CC(CC(C4)C2)C3)c1`, 294 to 298 °C; for `NS(=O)(=O)c1cc2cc3c(cc2[nH]1)OCO3`, 234 to 237 °C. For `COC(=O)C(Cc1ccc(OCCn2c(=O)oc3cc(C(O)c4ccccc4)ccc32)cc1)C(=O)OC` (stereo not given), the melting point lay within 84 to 87 °C. In the case of `Cc1[nH]c2ccccc2c1CCCN1CCC(c2noc3cc(F)ccc23)CC1`, the melting point was in the range of 208 to 210 °C. Under `COCc1cnc2c(NC(=O)c3c(Cl)cccc3Cl)cccc2c1CO` stands 199 to 200 °C; under `CCCCCCCCC(=O)NCc1ccc(C#N)cc1`, 185 to 187 °C. `C=C1C[C@@H]2[C@H](CC[C@]3(C)C(=O)CC[C@@H]23)[C@@]2(C)CCC(=O)C(S)=C12` registered a melting point of 195 to 197 °C.

For the compound `CCCc1c2nc(C(=O)OCC)cc(C)c2cc2c(=O)cc(C(=O)OCC)oc12`, the melting point fell in the range of 165 to 168 °C. For the compound `CC(NC(=O)Cc1cc(F)cc(F)c1)C(=O)NC1C(=O)NC(c2cccnc2)c2ccccc21` (stereo not given), the melting point is 100 to 120 °C. As for `CCCC1CC(NCC)=C(c2cccc(C(F)(F)F)c2)C1=O` (stereo not given), the melting point came to 120 °C.

For the compound `C=CCN(CC=C)c1ccc2[nH]c3cnc(C(=O)OCC)nc3c2c1`, the melting point lay within 188 to 190 °C. `CC1(CN2CCC(OCc3ccc(Cl)cc3)CC2)Cn2cc([N+](=O)[O-])nc2O1` (stereo not given) yielded a melting point of 129 to 130 °C. Under `Cc1cc(O)c(C)c(O)c1C#N` stands 162 to 163 °C. With `COc1ccc(NC(=O)C(=O)N2CCC(Cc3ccc(F)cc3)CC2)cc1`, the melting point lay within 105 to 107 °C. For `CCCCc1nc(Cl)c(CC(=O)O)n1Cc1ccc(NC(=O)c2ccccc2C(=O)O)cc1` the value was 170 to 175 °C. The compound `O=C1NCc2c1ccc(Nc1ccccc1)c2Nc1ccccc1` had a melting point of 225 °C. Under `CCCOc1ccc(-c2ncc(C#N)cn2)cc1` stands 193 to 194 °C. Under `O=S(=O)(O)CCCCCCN1CCN(Cc2ccccc2)CC1` stands 228 to 230 °C; under `CC12C=CC(=O)C=C1C1OC1C1C2CCC2(C)C(=O)CCC12` (stereo not given), 182 to 194 °C.

In the case of `O=C(O)C(=O)c1ccc(SCCOC2CCCCCCC2)cc1`, the melting point is 84 to 85 °C. Compound `COc1ccc(-c2cc3cc(F)c(F)cc3[nH]2)cc1NC(=S)Nc1ccc(C(=O)O)cc1` had a melting point of 201 to 203 °C. For `CCCCCCOc1ccc(-c2nc(-c3ccc(OCCCCCC)cc3O)nc(-c3ccc(OCCCCCC)cc3OCCCCCC)n2)c(O)c1` the value was 85 to 87 °C; for `O=C(NCCCO)c1ccc(O)cc1`, 118 to 120 °C.

For the compound `Cc1ccc(-c2ccc3c(c2)C=C(C(=O)NC2CCN(CCC4CCCCC4)CC2)CCO3)cc1`, the melting point is 193 to 196 °C.

`CC(C)CC(=O)N[C@@H](Cc1ccccc1)C(=O)CSCc1ccco1` returned a melting point of 94 to 95 °C. The compound `CSc1cc2c(cn1)c(=O)n1nc(C)cc1n2C` showed a melting point of over 300 °C. `O=c1nc(-c2cccc(Sc3ncccn3)n2)sc2ccccc12` had a melting point of 245 to 246 °C.

`CCOC(=O)c1cc2c(OCC(O)CNC(C)C)cc(C)cc2[nH]1` (stereo not given) registered a melting point of 163 to 165 °C. The compound `COc1ccc(C(=O)C=Cc2ccccc2[N+](=O)[O-])c(OC)c1OC` registered a melting point of 107 to 108 °C. Under `CCOC(=O)C(C)=NNc1ccc(C(O)(C(F)(F)F)C(F)(F)F)cc1` stands 167 to 168 °C. For the compound `CC(Cc1ccc(O)cc1)NCC(O)c1cc2ccccc2o1` (stereo not given), the melting point is 135 to 138 °C. Consider `N=C(N)NCc1ccc(N)c(I)c1`, for which the melting point was in the range of 135 to 137 °C. Under `O=C(O)COc1cccc(-c2n[nH]c3c2Cc2ccccc2-3)c1` stands 246 to 248 °C. The compound `Cc1cc2ccccc2c(Cl)c1C` displayed a melting point of 55 °C. `Cc1[nH]c(C(=O)N2CCN(c3ccccc3)CC2)c(C)c1-c1nc2ccc(C(=O)c3ccccc3)cc2[nH]1` had a melting point of 145 to 147 °C.

For `O=C(NO)C1C2CCC(CC2)C1S(=O)(=O)c1ccc(Oc2ccccc2)cc1` (stereo not given), the melting point was in the range of 89.9 to 91.8 °C. Under `O=[N+]([O-])c1ccc(Br)cc1O` stands 40 to 42 °C. With `COCC1CN(c2c(F)cc3c(=O)c(C(=O)O)cn([C@@H]4C[C@@H]4F)c3c2OC)CCN1` (stereo not given in full), the melting point lay within 92 to 95 °C. `O=C(Nc1ccc(C(F)(F)F)cc1)N1CC(c2ccccc2)C(c2ccc(Cl)cc2)N1` (stereo not given): the melting point lay within 212 to 214 °C. `CCCn1nc2c(N)nc3ccccc3c2c1CCNC(=O)Nc1ccc(F)c(F)c1` showed a melting point of 211 to 212 °C.

As to `CC(Cl)C(=O)Nc1nc(-c2ccccc2)cs1` (stereo not given), the melting point was in the range of 98 to 99 °C.

Compound `CC(C)(C)SCC1(C(=O)O)Cc2ccccc2C1` had a melting point of 158 to 163 °C. `NCc1nc(-c2ncn3c2[C@@H]2CCN2C(=O)c2c(Cl)cccc2-3)no1` registered a melting point of 212 to 214 °C. With `C=CCN(CC=C)C(=O)n1cnc(S(=O)CC)n1` (stereo not given), the melting point lay in the range of 41 to 43 °C. In turn, `CC(C)c1nnn(-c2c(Cl)cccc2Cl)c1COc1ccc(N(C)C(=O)c2ccc(C(=O)O)cc2)c(C(F)(F)F)n1` had a melting point of 218 to 219 °C. In turn, `O=C1CCC(N2Cc3c(CNC(=O)c4ccco4)cccc3C2=O)C(=O)N1` (stereo not given) had a melting point of 219 to 221 °C. Take `O=C(O)CCCS(=O)(=O)NC(=O)CCC(F)(F)C(F)(F)C(F)(F)C(F)(F)C(F)(F)C(F)(F)F`: the melting point is 175 to 180 °C. For `CN(C)C(=O)C(c1ccccc1)(c1ccccc1)c1ncc[nH]1` the value was 202 °C.

These data come from a melting point compilation (Tetko et al.; mined from patent text by program, amines drawn as free bases though some values may be those of a salt).
